“And” between values parts separate entries of the source, which are not always exact repeats. Equal entries are not always repeated.
Key:
Assay type in all cases: biochemical, bovine
[1] = system: KSP-phosphorylating kinases; assay: Immuno-dotblot assay (SMI-31/SMI-34 epitope reconstitution on dephosphorylated NF-triplet) with crude 35-45% ammonium sulfate fraction; settings: crude enzyme
Protocol: The preferred method for the immunoassay for detecting KSP-phosphorylating kinases is as follows. […] After incubation at 37° C. for 18 hours, assays were diluted to 100 μl with 10 mM PBS, pH 7.2, and aliquots of 50 μl were spotted on nitrocellulose (0.22 μm, Schleicher and Schull). […] Blots were incubated with SMI mAbs for at least 2 hours. The blots were then washed five times. […] All incubations and washes were at room temperature. Incubations were sealed in plastic bags with 50 μl of solution/cm membrane. The foregoing procedure involved parameters that were optimized as follows. […] This activity was NF-specific, since the corresponding control immunoassay which lacked dephosphorylated native NF-triplet was almost negative for this fraction. […] The assays were performed with 0.5 mM Mg^2+ (unless indicated otherwise). […] Immuno-dotblot-assays were conducted to determine the optimal Mg^2+ and ATP concentrations using the SMI-31 and SMI-34 antibodies. […] Control assays were without NFs using 0.4 micrograms crude enzyme.

PK40 = biological target: T1, PK40 (Bos taurus, UniProt P46196); assay: 32P kinase assay of purified PK40 with dephosphorylated NF-M as second substrate
T1 construct: from tissue; host or cells: bovine brain
Protocol: (§1) An alternative method for assaying the phosphorylating activity of the kinases was by ^32P assays. Radioactive assays in the same buffer system as for immunoassays contained 5 μg of HTP-purified native NF-triplet as substrate (3μg of substrate proteins other than NFs) and 150-250 cpm/pmole gamma-^32P-ATP. Incubation'times were 15 minutes at 37° C. for activities up to about 1 pmole/min/assay, since the assay responses were linear within these time intervals. Assays were stopped by cooling on ice, addition of 20 μl 25 mM EDTA and immediate transfer of the mixture onto glass filters (Whatman GF/A) wetted with 10% TCA/2% sodium pyrophosphate (PPA). The glass filters were washed twice for 1 hour and once for at least 3 hours in 10% TCA/2% PPA and finally in ethanol and were air-dried. Radioactivity was assessed by scintillation counting (Beckman LS 230) with 5 ml “Liquiscint” (National Diagnostics) for 20 minutes. Assays were routinely carried out in triplicate except for some duplicate assays in a few explicitly mentioned cases; a control assay lacking NFs was subtracted from the mean value.
(§2) The ATP dependence and inhibition of the activities of PK40 and PK36 were determined at 2 mM Mg^2+ with soluble dephosphorylated NF-M as second substrate to avoid uncertainties arising from the aggregation state of NF-triplet in suspension. The optima were at 0.5-1 mM ATP for both kinases. Apparent Km values for ATP of both kinases were estimated from Woolf-Hanes plots (Dixon and Webb, 1979) for a range of ATP concentrations sufficiently below the onset of inhibition. […] The apparent Km of PK36 was approximately 50 μM.

PK36 = assay: 32P kinase assay of purified PK36 with dephosphorylated NF-M as second substrate
Protocol: as §1, §2

[2] = 5 mM Mg2+ over 1 mM ATP or 5 mM over 5 mM ATP
[3] = 5 mM Mg2+, 1 mM ATP, % of control
[4] = 5 mM Mg2+, 5 mM ATP, % of control
[5] = 2 mM Mg2+, 5 mM ATP, % of control (2 mM Mg2+, 1 mM ATP)
[6] = ATP in relatively small excess over Mg2+

T1 sequence (P46196 2-360 limits assumed): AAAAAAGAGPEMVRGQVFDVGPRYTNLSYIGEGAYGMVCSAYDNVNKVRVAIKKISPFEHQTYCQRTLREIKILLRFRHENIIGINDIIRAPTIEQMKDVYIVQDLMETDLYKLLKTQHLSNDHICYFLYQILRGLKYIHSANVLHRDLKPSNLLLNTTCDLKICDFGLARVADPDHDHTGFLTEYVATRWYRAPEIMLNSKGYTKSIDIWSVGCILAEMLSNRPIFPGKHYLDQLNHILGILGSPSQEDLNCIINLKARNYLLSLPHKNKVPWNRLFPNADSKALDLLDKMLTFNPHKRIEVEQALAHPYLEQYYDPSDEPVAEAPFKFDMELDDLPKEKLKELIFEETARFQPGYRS

[Mn+2] [Mn^2+]
effectiveness relative to Mg2+ [1]: about twice as effective as Mg^2+

[Cl-].[Na+] [NaCl, sodium chloride]
concentration that diminished the assay response ([1]; attributed to ionic strength): greater than 20 mM | relative activity [%] of PK40 (PK40; NaCl 150 mM, % of control): 27 ± 1.8% | relative activity [%] of PK36 (PK36; NaCl 150 mM, % of control): 40 ± 0.8%

[Mg+2] [Mg^2, magnesium]
inhibition of PK40 with excess Mg2+ (PK40; [2]): little or no inhibition | relative activity [%] of PK40 (PK40; [3]): 107 ± 3.5% | relative activity [%] of PK40 (PK40; [4]): 78 ± 7.1% | inhibition of PK36 with excess Mg2+ (PK36; [2]): significantly reduced | relative activity [%] of PK36 (PK36; [3]): 40 ± 0.2% | relative activity [%] of PK36 (PK36; [4]): 38 ± 2.2%

Nc1nc2c(ncn2[C@@H]2O[C@H](COP(=O)(O)OP(=O)(O)OP(=O)(O)O)[C@@H](O)[C@H]2O)c(=O)[nH]1 [GTP]
ability to substitute for ATP [1]: could not substitute for ATP

Nc1ncnc2c1ncn2[C@@H]1O[C@H](COP(=O)(O)OP(=O)(O)OP(=O)(O)O)[C@@H](O)[C@H]1O [ATP]
effect on kinase activity ([1]; ATP 5 mM): inhibited the kinase activity | ATP optimum of PK40 activity (PK40; 2 mM Mg2+): 0.5 to 1 mM | relative activity [%] of PK40 (PK40; [5]): 7% and 7.2 ± 6.9% | Km (PK40; 2 mM Mg2+, Woolf-Hanes plots, mean ±S.D. of three determinations, read-out: apparent Km for ATP of PK40): 93 ± 12 µM | inhibition of PK40 by excess ATP (PK40; [6]): strongly inhibited | ATP optimum of PK36 activity (PK36; 2 mM Mg2+): 0.5 to 1 mM | relative activity [%] of PK36 (PK36; [5]): 14% and 14 ± 0.5% | Km (PK36; 2 mM Mg2+, Woolf-Hanes plots, read-out: apparent Km for ATP of PK36): ~50 µM | inhibition of PK36 by excess ATP (PK36; [6]): strongly inhibited

— patent US20020025942A1, “NOVEL TAU/NEUROFILAMENT PROTEIN KINASES” (priority 1991, published 2002)
